Results published in patent US20160202242A1, “CELL DEATH-INDUCING AGENT, CELL GROWTH-INHIBITING AGENT, AND PHARMACEUTICAL COMPOSITION FOR TREATMENT OF DISEASE CAUSED BY ABNORMAL CELL GROWTH” (Nitto Denko Corporation, priority 2014, published 2016).
d = 2'-deoxy (DNA); r = 2'-OH (RNA)

Columns and labels:
Assay type in all cases: cell-based, human
[1] = system: P21 mRNA; assay: P21 mRNA level by quantitative PCR 1 day after siRNA transfection; conditions: PANC-1, MIA PaCa-2, or A549 cells, GST-π siRNA 50 nM or 100 nM, vs control siRNA
Protocol: As examples of cancer cells, 1×10^5 M7609 cells (human colorectal cancer cells having KRAS mutation) and PANC-1 cells (human pancreatic cancer cells having KRAS mutation) were inoculated to 6 cm Petri dishes and cultured for 18 hours in Roswell Park Memorial Institute 1640 (RPMI 1640, Sigma-Aldrich Corp.) supplemented with 10% fetal bovine serum (FBS) and 0.5% L-glutamine. The culture conditions were 37° C. and 5% CO2, unless otherwise specified. Moreover, as an example of cancer cells, 0.5×10^5 A549 cells (human lung cancer cells having KRAS mutation) were inoculated to a 6 cm Petri dish and cultured for 18 hours in a Dulbecco's modified Eagle's medium (DMEM, Sigma-Aldrich Corp.) supplemented with 10% FBS and 1% L-glutamine. […]
GST-π siRNA and P21 siRNA each at a final concentration of 50 nM, GST-π siRNA or P21 siRNA at a final concentration of 50 nM (both added with control siRNA at a final concentration of 50 nM), or GST-π siRNA at a final concentration of 100 nM (without the addition of control siRNA) were added to each of the Petri dishes containing the PANC-1, MIA PaCa-2, or A549 cells. […] After culture for 1 day without the replacement of the medium, the GST-π mRNA level and the P21 mRNA level were quantified by quantitative PCR using 7300 Real Time PCR System (Applied Biosystems, Inc.).

[2] = system: P21 mRNA; assay: P21 mRNA level quantified every day to the 4th day after siRNA addition; conditions: A549 or MIA PaCa-2 cells, siRNA 50 nM
Protocol: (§1) As examples of cancer cells, 1×10^5 M7609 cells (human colorectal cancer cells having KRAS mutation) and PANC-1 cells (human pancreatic cancer cells having KRAS mutation) were inoculated to 6 cm Petri dishes and cultured for 18 hours in Roswell Park Memorial Institute 1640 (RPMI 1640, Sigma-Aldrich Corp.) supplemented with 10% fetal bovine serum (FBS) and 0.5% L-glutamine. The culture conditions were 37° C. and 5% CO2, unless otherwise specified. Moreover, as an example of cancer cells, 0.5×10^5 A549 cells (human lung cancer cells having KRAS mutation) were inoculated to a 6 cm Petri dish and cultured for 18 hours in a Dulbecco's modified Eagle's medium (DMEM, Sigma-Aldrich Corp.) supplemented with 10% FBS and 1% L-glutamine. Furthermore, as an example of cancer cells, 1×10^5 MIA PaCa-2 cells (human pancreatic cancer cell having KRAS mutation) were inoculated to a 6 cm Petri dish and cultured for 18 hours in DMEM supplemented with 10% FBS and 1% L-glutamine. […]
Moreover, as for the case where GST-π siRNA or control siRNA at a final concentration of 50 nM was added to each of the Petri dishes containing the A549 cells or the MIA PaCa-2 cells, the P21 mRNA level was similarly quantified every day from the day of addition of GST-π siRNA or control siRNA to the 4th day.

[3] = system: PANC-1, MIA PaCa-2, or A549 cells; assay: Number of cells counted after 5 days of culture, single siRNA transfection; conditions: siRNA 50 nM plus control siRNA 50 nM
Protocol: as §1
Meanwhile, the influence of GST-π siRNA and/or P21 siRNA on the number of cells was tested. […] After culture for 5 days without the replacement of the medium, the cells were dissociated and collected from the Petri dish by trypsin treatment, and the number of cells was counted.

[4] = system: A549 cells, MIA PaCa-2 cells, PANC-1 cells, and HCT116 cells; assay: Phase difference images of cells after knockdown three times; conditions: knocked down three times; 7 days after inoculation
Protocol: As examples of cancer cells, 1×10^5 M7609 cells (human colorectal cancer cells having KRAS mutation) and PANC-1 cells (human pancreatic cancer cells having KRAS mutation) were inoculated to 6 cm Petri dishes and cultured for 18 hours in Roswell Park Memorial Institute 1640 (RPMI 1640, Sigma-Aldrich Corp.) supplemented with 10% fetal bovine serum (FBS) and 0.5% L-glutamine. The culture conditions were 37° C. and 5% CO2, unless otherwise specified. […]
First, for the PANC-1 cells, the MIA PaCa-2 cells, or the HCT116 cells, GST-π siRNA and P21 siRNA each at a final concentration of 25 nM, or GST-π siRNA or P21 siRNA at a final concentration of 25 nM (all added with control siRNA at a final concentration of 25 nM) were added to each of the Petri dishes, while for the A549 cells, GST-π siRNA and P21 siRNA each at a final concentration of 50 nM, or GST-π siRNA or P21 siRNA at a final concentration of 50 nM (added with control siRNA at a final concentration of 50 nM) were added to each of the Petri dishes. […] Seven days after the cell inoculation, the cells were dissociated and collected from the Petri dish by trypsin treatment, and the number of cells was counted. […]

[5] = system: M7609 cells; assay: Senescence beta-galactosidase staining 13 days after inoculation, GST-π knocked down three times; conditions: GST-π siRNA 30 nM added three times
Protocol: As examples of cancer cells, 1×10^5 M7609 cells (human colorectal cancer cells having KRAS mutation) and PANC-1 cells (human pancreatic cancer cells having KRAS mutation) were inoculated to 6 cm Petri dishes and cultured for 18 hours in Roswell Park Memorial Institute 1640 (RPMI 1640, Sigma-Aldrich Corp.) supplemented with 10% fetal bovine serum (FBS) and 0.5% L-glutamine. The culture conditions were 37° C. and 5% CO2, unless otherwise specified. Moreover, as an example of cancer cells, 0.5×10^5 A549 cells (human lung cancer cells having KRAS mutation) were inoculated to a 6 cm Petri dish and cultured for 18 hours in a Dulbecco's modified Eagle's medium (DMEM, Sigma-Aldrich Corp.) supplemented with 10% FBS and 1% L-glutamine. Furthermore, as an example of cancer cells, 1×10^5 MIA PaCa-2 cells (human pancreatic cancer cell having KRAS mutation) were inoculated to a 6 cm Petri dish and cultured for 18 hours in DMEM supplemented with 10% FBS and 1% L-glutamine. Furthermore, as an example of cancer cells, 0.5×10^5 HCT116 cells (human colorectal cancer cells having KRAS mutation) were inoculated to a 6 cm Petri dish and cultured for 18 hours in McCoy's 5A Medium (McCoy, Sigma-Aldrich Corp.) supplemented with 10% FBS and 0.5% L-glutamine.
Whether the cell senescence as shown in FIGS. 6 to 9 was could be induced by knocking down GST-π was tested using the M7609 cells. […]

## GST-π siRNA: siRNA against GST-π; sense GGGAGGCAAGACCUUCAUUtt (SEQ ID NO: 31), antisense AAUGAAGGUCUUGCCUCCCtg (SEQ ID NO: 32) (sense GGGAGGCAAGACCUUCAUUTT; antisense AAUGAAGGUCUUGCCUCCCTG; sugars from the 5' end r19 d2, backbone not given here)
[1]
  amount of P21 mRNA: increased
[2]
  expression level of P21 mRNA over time: increased over time
[3]
  number of cells, each siRNA alone: the number of cells cannot be decreased with respect to the number of inoculated cells, though cell growth is inhibited
[4]
  cell morphology / cell senescence-like phenotype in phase difference image: became flat and large cells
[5]
  cell senescence (flat and large cells, blue color development by galactosidase staining): cell senescence was evoked

## P21 siRNA: siRNA against P21; sense UCCUAAGAGUGCUGGGCAUtt (SEQ ID NO: 33), antisense AUGCCCAGCACUCUUAGGAtt (SEQ ID NO: 34) (sense UCCUAAGAGUGCUGGGCAUTT; antisense AUGCCCAGCACUCUUAGGATT; sugars from the 5' end r19 d2, backbone not given here)
[3]
  number of cells, each siRNA alone: the number of cells cannot be decreased with respect to the number of inoculated cells, though cell growth is inhibited
